# Values of other authors as cited in patent publication US6491617B1, “Medical devices that resist restenosis” (St. Jude Medical, Inc., priority 1999, dated 2002).
# Conditions: nitric oxide-releasing agent, test system not stated
"IC50 (read-out: IC-50 concentration, i.e., a concentration at 50 percent effectiveness) [µM]",Compound,effective concentration [nM]
–,NaO[NONO]Na [nitro percide],25
0.0197,"NCCCNCCCCNCCCN [Spermine, H2N(CH2)3NH2^+(CH2)4N[NONO]^−(CH2)3NH2]",–
